Assay results published in a melting point compilation (Tetko et al.; mined from patent text by program, amines drawn as free bases though some values may be those of a salt).
Residues, ends and D or L forms follow the SMILES beside them. *: point of attachment. Cbz = O=C(OCc1ccccc1)*

| melting point [°C] | Structure (SMILES) |
| --- | --- |
| 242 | COc1ccc(/C=C/c2nc3c([nH]2)c(=O)n(C)c(=O)n3C)c(Cl)c1OC |
| 174 to 176 | C#CCC(O)(c1cncnc1)C(C)(C)C (stereo not given) |
| 178 to 180 | c1ccc(CSc2cc(SCc3ccccc3)c3ccc4c(SCc5ccccc5)cc(SCc5ccccc5)c5ccc2c3c54)cc1 |
| 141 to 143 | CN(C)C=NS(=O)(=O)c1ccc(Br)cc1 |
| 183 to 187 | Cc1nc2cccc(OCC(C)(C)C(=O)NC3CCC3)c2c(N)c1C(=O)O |
| 200 | CC(C)(C)OC(=O)N1C[C@@H]2[C@H](F)CCC(c3ccccc3)(c3ccccc3)[C@@H]2C1 |
| 211 to 213 | CS(=O)(=O)c1ccc(-c2cnn(-c3ccc(F)c(F)c3)c(=O)c2C#Cc2ccccc2)cc1 |
| 69 to 70 | Cc1ccc2c(c1)Sc1cc(C)ccc1O2 |
| 76 to 79 | CCC(=O)CCSc1cc(C(C)(C)C)c(O)c(C(C)(C)C)c1 |
| 213 to 215 | Nc1ncc(I)cc1[N+](=O)[O-] |
| 174 to 175 | CC(C)(C)c1cc(-c2nn(-c3ccccc3)c3ncccc23)cc(C(C)(C)C)c1O |
| 99 to 99.5 | C(=C\c1nc2ccccc2n1-c1nccs1)/c1ccccc1 |
| 150 to 152 | CC(C)(C)C1CCN(CCCC(=O)c2ccc3c(c2)-c2ccc(C(=O)CCCN4CCC(C(C)(C)C)CC4)c4cccc-3c24)CC1 |
| 118 | CCCCCCOc1cc(C)ccc1C(=O)c1cccc(C(=O)O)c1 |
| 84 to 86 | CCCC(C(=O)N(C)C)n1cc(C)c(-c2ccccc2)n1 (stereo not given) |
| 56 to 58 | Cc1nc2c(O[Si](C)(C)C(C)(C)C(C)C)c(CC[C@@H](O)c3ccccc3)c(C(=O)N(C)C)cn2c1C |
| 159 to 162 | Cc1[nH]c2ccc(F)cc2c1C(=O)NC1CCN(CCc2ccccc2)CC1 |
| 176 to 179 | Nc1c(NCc2ccccc2)ccnc1Cl |
| 178 to 179 | COC(=O)c1sccc1S(=O)(=O)NC(=O)Nc1nc(C)cc(OC(F)F)n1 |
| 123 to 125 | O=Cc1cc2c3ccccc3oc2c2ccccc12 |
| 154 to 155 | Cc1cc(-c2ncn(Cc3ccc(F)cc3)n2)sc1C(=O)NCc1cccnc1 |
| 123 to 124 | Cc1ccnc2c1C(=O)CC(c1cccc(Cl)c1Cl)C2 (stereo not given) |
| 240 to 241 | O=C(O)c1ccc(-c2ccc3cc(OCc4ccc(F)cc4)c(C45CC6CC(CC(C6)C4)C5)cc3c2)cc1O |

| melting point [°C] | Structure (SMILES) |
| --- | --- |
| 98 to 100 | Nc1cccc(Oc2cccc3cccnc23)c1 |
| 130 to 132 | CC(C)(C)OC(=O)CC(O)c1ccc(Cl)nc1NC(=O)C(C)(C)C (stereo not given) |
| 247 to 248 | CC(=O)Nc1cccc(-c2c(C)c(NC(=O)CC(C)(C)C)c(C)c3c2OCC3c2ccc(C(C)C)cc2)c1 (stereo not given) |
| 146 to 148 | CCCCCCCCCCCn1ncnc1NC(=O)Nc1c(C(C)C)cccc1C(C)C |
| 125 to 128 | CC(=O)NC1(c2ccccc2)CCN(CC[C@@H](c2ccc(Cl)c(Cl)c2)[C@@H](O)c2cnnn2-c2ccccc2)CC1 (racemic) |
| 217 to 218 | Cc1oc(-c2ccc(F)cc2)cc1C(=O)O |
| 301 to 304 | O=c1[nH]c2cc(Cl)cc(Cl)c2c(=O)n1Cc1ccc(F)cc1 |
| 227 to 235 | CC1(COc2ccc([N+](=O)[O-])cc2)CC(=O)c2cc(C(=O)O)ccc2O1 (stereo not given) |
| 179 to 180 | O=C(Nc1ccc(-n2nc(-c3cncc(Br)c3)cc2OC(F)F)cc1)c1ccncc1F |
| 143 to 144 | CCN(CC)C(=O)COC(=O)c1cccc(NC(=O)C(CSC(C)=O)Cc2ccccc2)c1 (stereo not given) |
| 85 to 87 | Cc1ccc(S(=O)(=O)OCC(O)Cc2cc(Cl)c3ccccc3c2OCc2ccccc2)cc1 (stereo not given) |
| 113 to 114 | CCOc1ccc(-c2nc(-c3cc(CCO)c(O)c(C(=O)OC)c3)cs2)cc1OCC |
| 199 | CC1(C)CCOc2ccc(C(=O)c3ccc(C(=O)O)cc3)cc21 |
| 177 to 179 | COc1cc(C2c3cc4c(cc3C(NC3=CC(=O)N(Cc5ccc(NC(C)=O)cc5)C3=O)C3COC(=O)C23)OCO4)cc(OC)c1O[Si](C)(C)C(C)(C)C (stereo not given) |
| 274 to 275 | COc1ccc(-c2c3ccccc3cc3sc4ccccc4c23)cc1I |
| 172 to 173 | COC(=O)C1=C(C)NC(C)=C(C(=O)OCC2CCCO2)C1c1cccc(Cl)c1Cl (stereo not given) |
| 61 to 63 | C=CC[Si](C)(C)c1cccc(Cl)c1C(=O)NCC |
| 193 to 194 | CS(=O)(=O)N1CCCCc2nc(-c3ccncc3)sc21 |
| 214 to 217 | O=C(/C=C/c1ccc(F)c(F)c1)N1CCN(C(=O)c2cc(C(F)(F)F)cc(C(F)(F)F)c2)[C@H](Cc2c[nH]c3ccccc23)C1 |
| 79 to 81 | CCc1nn(-c2cc(NC(=O)c3ccccc3)ccc2Cl)c(=O)n1Cc1ccc(-c2ccccc2S(=O)(=O)NC(=O)OC(C)(C)C)cc1F |
| 222 to 224 | CC(C)n1nc(-c2c(NCCO)nc(N)nc2-c2ccccc2)ccc1=O |
| 144 to 145 | COC(=O)c1ccc2cc(OC)c(OC)cc2c1O |
| 130 to 132 | CNc1cccc(F)c1C#N |

| melting point [°C] | Structure (SMILES) |
| --- | --- |
| 182 | CC#CCOc1ccc(SC(C(=O)NO)c2ccc(-c3cccs3)cc2)cc1 (stereo not given) |
| 125 to 126 | COC(=O)C(CC(C)C)NC(=O)C(Cc1ccccc1)NC(=O)OCc1ccccc1 (stereo not drawn) (Cbz-Phe-Leu-OMe; configuration not given here) |
| 141 to 143 | CC(C)(C)OC(=O)Oc1ccc(C(=O)c2ccc(OC(=O)OC(C)(C)C)cc2)cc1 |
| 225 to 227 | Cc1ccc(S(=O)(=O)NCC(CC(=O)Nc2ccc(C(=O)O)cc2)c2ccccc2)cc1 (stereo not given) |
| 300 | CC(C)c1nc(O)c([N+](=O)[O-])c(O)n1 |
| 165 to 166 | C#CC(O)(c1ccccc1)c1ccncc1 (stereo not given) |
| 164 to 166 | NS(=O)(=O)c1cc(C(=O)c2ccc3c(c2)CCC3)ccc1Cl |
| 222 to 224 | CCOC(=O)C=c1sc2n(c1=O)Cc1ccccc1N=2 |
| 117 to 120 | CCc1nc2c(cnn2CC)c(NC2CCOCC2)c1CNC(=O)c1cc(C)cc(C(=O)NCc2ccc(C)c(-c3cccc(C=O)c3)c2)c1 |
| 116 to 117 | Cc1sc(COc2ccc(/C=C/C=O)cc2)nc1-c1ccccc1 |
| 86 to 87 | CCc1cc(N(C)C(=O)N2CCN(c3cc(C)cc(C)c3)CC2)c(OC)nc1C |
| 265 to 266 | O=C1Nc2cccc(-c3cccc(NC(=O)c4cccc([N+](=O)[O-])c4)c3)c2/C1=C/c1ccc[nH]1 |
| 172 to 173 | O=C(O)[C@@]12C[C@@H](c3ccccc31)c1ccc(Cl)cc12 |
| 224 to 225 | OCC1OC(n2cnc3c(-c4ccccc4)ncnc32)C(O)C1O (stereo not given) |
| 71.5 | O=c1cc(COC2CCCCO2)occ1OCCCCBr (stereo not given) |
| 119 to 121 | CCOC(=O)C(C#N)=CC1C=C(OC)C(C(=O)OC)=C(OC)C1 (stereo not given) |
| 71 to 71.5 | CCOC(=O)C=Cc1cccc(C(=O)c2ccc(OC)cc2)c1 |
| 240 to 242 | CC(C)NC(=O)c1cc(Cl)nc(Cl)c1NC(=O)c1cc(C(F)(F)F)nn1-c1ncccc1Cl |
| 105 to 107 | CCC(CC)Nc1cc(C)nc(Oc2c(C)cc(C)cc2C)c1N |
| 130 to 133 | Cc1ccc([N+](=O)[O-])cc1Nc1cc(Cl)ccn1 |
| 80 | CC(C)(C#N)c1c(Cl)cc([N+](=O)[O-])cc1Cl |
| 73 to 74 | COc1ccc2c(c1)C(CCNC(C)=O)CC2 (stereo not given) |
| 138 to 141 | CNC(=O)N(O)C(C)c1ccc(C#Cc2ccccc2)cc1 (stereo not given) |

| melting point [°C] | Structure (SMILES) |
| --- | --- |
| 111 to 113 | CC(C)Oc1ccc(CCCOc2nn(Cc3ccccc3)cc2CC(=O)O)c(Oc2ncc(Cl)cc2Cl)c1 |
| 134 to 136 | Cc1oc2c(-n3c(=O)cc(C(F)(F)F)n(C)c3=O)ccc(Cl)c2c1NO |
| 135 to 137 | COc1ccc(Br)cc1-c1ccc2nonc2c1 |
| 158 to 160 | O=CNNc1ccc(NC(=S)NC2CCCCC2)cc1 |
| 220 to 222 | CN(Cc1ccccc1)Cc1c(-c2ccc(NC(=O)NCCO)cc2)sc2c1c(=O)n(-c1ccccc1)c(=O)n2Cc1c(F)cccc1F |
| 118 to 119 | CC(C)Cn1c(-c2c(F)cccc2F)c(Cl)nc(-n2cccn2)c1=O |
| 302 to 304 | O=C1Nc2cnc(Nc3ccc(N4CCOCC4)cc3)nc2S/C1=C/c1ccc([N+](=O)[O-])cc1 |
| 240 to 243 | CCC=CCn1c(=O)sc2c(=O)[nH]c(N)nc21 |
| 146 | Cc1ccncc1-c1nc(-c2ccc(Cl)cc2)c(Cl)s1 |
| 140 | CCN(CC)CCN(C)C1(c2ccccc2Cl)C(=O)Nc2ccc(Cl)cc21 (stereo not given) |
| 70 to 72 | CC(=O)NC(Cl)C(Cl)(Cl)CCl (stereo not given) |
| 183 to 184 | CS(=O)(=O)c1ccc(-c2cnc(-c3ccc(F)cc3)s2)s1 |
| 66 | CCOC(=O)[C@@H]1O[C@@H]1c1ccc(C)cc1 |
| 178 | CCOC(=O)C(=O)Nc1c([N+](=O)[O-])cc(C#N)c2ccccc12 |
| 204 to 205 | c1ccc(-c2nn3ccccc3c2-c2ccnnc2)cc1 |
| 212 to 213 | FC(F)C(F)(F)Sc1nc(-c2ccccc2)c(-c2ccccc2)[nH]1 |
| 185 | CCCCOC(=N)c1sc2ccccc2c1O |
| 105 to 106 | CN(C)c1ccc2sc(C=O)cc2c1 |
| 134 to 137 | C1=CC2=C(CCCC2)n2c3c(c4cnccc42)CCC=C13 |
| 141 to 142 | CC1(c2oncc2C(=O)c2ccc(S(C)(=O)=O)cc2C(F)(F)F)CC1 |
| 90 to 91 | CC(C)(C)C(Cc1ccccc1)C(=O)n1ccnc1 (stereo not given) |
| 98 | Cc1ccc(CCCNC(=O)Cc2ccc(OCCN)c([N+](=O)[O-])c2)cc1C |
| 148 to 150 | C=C(C)OC(=O)N1c2cc(Cl)ccc2NC(=S)[C@@H]1C |

| Structure (SMILES) | melting point [°C] |
| --- | --- |
| O=C1NCN(c2ccccc2)C12CCN(CCCn1cnc3ccccc31)CC2 | 191 |
| Cc1ncc([N+](=O)[O-])n1CCN(CCCC(C)N(CCn1c([N+](=O)[O-])cnc1C)CCn1c([N+](=O)[O-])cnc1C)CCn1c([N+](=O)[O-])cnc1C (stereo not given) | 150 to 151 |
| CC(=NOC(=O)N(C)C)C1=CCCN(C)C1 | 54 to 55 |
